“Also recorded” adds a separate entry of the source.

The subject of experiment [1] is transgenic CD4^+ T cells. Description: Selection of transgenic CD4^+ T cells in TCR^TgTCRα^−→H-2M^−Ii^− radiation chimeras. Particulars: mouse, in vivo. The source says:
Also disclosed by the inventors is the development of transgenic CD4^+ T cells in chimeras made by reconstituting H-2M^−Ii^− mice with the bone marrow from TCR^TgTCRα^− mice (TCR^TgTCRα^−→H-2M^−Ii^− chimeras). The development of thymocytes in such chimeras is arrested at the CD4^+CD8^+ stage despite the presence of selecting wild type A^b/self-peptide complexes on bone marrow-derived dendritic cells. […] This in vivo model relates that, in contrast to the reaggregation cultures (Yastumo et al., 2000), radioresistant thymic epithelial cells are required to provide an agonist signal that induces thymocyte differentiation towards CD4^+ lineage in vivo.

Another experiment deals with peripheral CD4^+ T cells. In words: Peptide injection into thymectomized TCR^TgTCRα^−H2-M^−Ii^− mice. Particulars: two weeks after injection. The class given is in vivo, mouse. The source says: Since the selecting peptide is an agonist, in a specific embodiment of the present invention the observed phenomenon results from the expansion of a small number of peripheral transgenic CD4^+ T cells rather than from induced positive selection. To test this possibility, two types of experiments have been performed. In the first experiment, the PCC TgTCRα^−H-2M^−Ii^− mice were thymectomized and then injected with the PCC50V54A peptide. Two weeks after injection, these mice were sacrificed and the number of peripheral CD4^+ T cells was counted. […] After 10 days, recipient mice were sacrificed and the presence of transgenic CD4^+ T cells in the transplanted thymus and lymph nodes was determined by FACS analysis. […]
(§1) Since the selecting peptide is an agonist, one could argue that the observed phenomenon results from the expansion of a small number of peripheral transgenic CD4^+ T cells rather than from induced positive selection (Martin & Bevan, 1997). […] Two weeks after injection, the mice were sacrificed and the number of peripheral CD4^+ T cells was counted. […] After 10 days, recipient mice were sacrificed and the presence of transgenic CD4^+ T cells in the transplanted thymus and host lymph nodes was determined by FACS analysis. […]

For experiment [2], the system named is transgenic CD4^+ T cells. Description: Neonatal thymus transplant under the kidney capsule of TCRα^−H2-M^−Ii^− recipients with selecting peptide. The class given is in vivo, mouse.
Text: Since the selecting peptide is an agonist, in a specific embodiment of the present invention the observed phenomenon results from the expansion of a small number of peripheral transgenic CD4^+ T cells rather than from induced positive selection. To test this possibility, two types of experiments have been performed. In the first experiment, the PCC TgTCRα^−H-2M^−Ii^− mice were thymectomized and then injected with the PCC50V54A peptide. Two weeks after injection, these mice were sacrificed and the number of peripheral CD4^+ T cells was counted. […] In the second experiment, the neonatal thymi from TgTCRα^−H-2M^−Ii^− mice were transplanted under the kidney capsule of H-2M^−Ii^− TCRα^− mice, which are devoid of T cells. Two days after surgery, half of the recipient mice were injected with the selecting peptide. After 10 days, recipient mice were sacrificed and the presence of transgenic CD4^+ T cells in the transplanted thymus and lymph nodes was determined by FACS analysis. […] Apparently, CD4^+ T cells appear in the peripheral lymph nodes of PCC TgTCRα^−H-2M^−Ii^− injected with the PCC50V54A peptide as a result of positive selection by this peptide.
Peptide injections and surgical procedures. TCR^TgTCRα^− and TCR^TgTCRαH2-M^−Ii^− were injected i.p. with agonist and control peptides dissolved in PBS. After indicated time mice were sacrificed, thymus and lymph nodes were collected and single cell suspensions were prepared. Pups were injected with 2 μg of peptide subcutaneously 12-24 hours after birth and thymi were transplanted into recipient mice 24 hours after injection. […]
as §1

Experiment [3] has as its system transgenic CD4^+ thymocytes. In words: Positive selection of CD4^+ thymocytes after peptide injection into TCR^TgTCRα^−H2-M^−Ii^− mice (flow cytometry of thymus). The class given is in vivo, mouse. The source says: Mice. The TCR genes were cloned from T cell hybridoma specific for analogs of the PCC(43-58) peptide and expressed in VA-hCD2 cassette (Ignatowicz et al., 1997; Kraj et al., 2001; Zhumabekov et al., 1995). All TCR transgenic mice were made by co-microinjection of the respective […] and TCRβ constructs into fertilized eggs of F1 (C57BL/6×CBA/Ca) mice. TCR Tg mice were crossed to C57B16/TCRα^− (Jackson Laboratory, ME) mice and to mice deficient in H2-M (kindly provided by E. Bikoff and R. Germain) and Ii (kindly provided by L. van Kaer) to obtain TCR^TgTCRα^− H2-M^−Ii^−.
Flow cytometry analysis. Monoclonal antibodies specific for CD4(RM4-5), CD8(53-6.7), VβB8(F23.1), CD69(H1.2F3), CD44(IM7) and CD62L(MEL-14) were purchased from PharMingen (San Diego, Calif.) and used according to manufacturer's recommendations. Cells were analyzed using a FACSCalibur instrument (Becton Dickinson, San Jose, Calif.) and CellQuest software. For intracellular stain cells were first stained for CD4 and CD8, fixed in 2% paraformaldehyde, permeabilized in 0.1% Tween-20 and stained with anti-bcl-2 antibody (Pharmingen) according to manufacturer instruction.
Peptide injections and surgical procedures. TCR^TgTCRα^− and TCR^TgTCRαH2-M^−Ii^− were injected i.p. with agonist and control peptides dissolved in PBS. After indicated time mice were sacrificed, thymus and lymph nodes were collected and single cell suspensions were prepared. Pups were injected with 2 μg of peptide subcutaneously 12-24 hours after birth and thymi were transplanted into recipient mice 24 hours after injection. 5-8 week old TCR^TgTCRα^− H2-M^−Ii^− mice were used for thymectomy or as thymic transplant recipients. Surgical procedures were performed as described (Coligan et al., 1997). Mice were handled according with the institutional guidance.
On the technique in general: In flow cytometry, cells or beads pass a laser one at a time.

The subject of another experiment is B16 melanoma cells. Description: Protection against B16 melanoma transfected with A^bPCC50V54A-YFP in TCR^Tgα^−H-2M^−Ii^− mice. The class given is in vivo, mouse. As for the experimental part: Protection of a mouse melanoma model. Peptide selected CD4^+ T cells are shown to be functional and protect mice from melanoma tumor cells. To determine if peptide selected T lymphocytes are able to mount an effective immune response in vivo the ability of peptide-selected CD4^+ cells to protect mice from melanoma was assessed. Melanoma B16-F1 was transfected with constructs encoding the A^bβPCC50V54A chain tagged with yellow fluorescent protein (YFP) and A^bα chain. These transfectants weakly stimulated TCR^Tgα^− CD4^+ cells from wild type mice. TCR^Tgα^−H2-M^−Ii^− mice received subcutaneous injection of B16 melanoma transfectants. At the same time, half of these mice also received selecting agonist peptide. After 12 days, animals were sacrificed, and the phenotype of tumor cells and peripheral CD4^+ T cells in draining lymph nodes was examined. As shown in FIGS. 16A-E, only mice that received selecting peptide accumulated peripheral CD4^+ T cells. These cells responded to tumor as assessed by upregulation of CD69 and downregulation of CD62L. Most importantly, tumors in mice that received a selecting peptide were much smaller (4-6 times) and were composed of melanoma cells without surface expression of antigenic complex (only about ¼ of cells were YFP^+ compared to more then ¾ in mice not treated with the selecting peptide). […]

[4] abbreviates: one i.p. injection of 50 μg, 24 hours.

Consider “AEGFSYTVANKAKGIT [PCC50V54A, analog of pigeon cytochrome C peptide PCC(43-58)]”, for which, in the experiment with transgenic CD4^+ T cells [1], the “appearance / positive selection of mature CD4^+ T cells in chimeras” value is on record as “appeared only after injection”. Further, the “total number of lymph node cells” value is reported as 11.5×10^6±1.6 with peripheral CD4^+ T cells (50 μg) and 25.5×10^6±4.2 with transgenic CD4^+ T cells [2] (recipients of neonatal thymi injected with the selecting peptide, two weeks after transplantation). The “number of peripheral CD4 transgenic T cells” value in the experiment with peripheral CD4^+ T cells (versus non-injected thymectomized controls) is “very low and did not increase; also recorded: very few CD4^+ peripheral T cells”. The “presence of transgenic CD4^+ T cells in transplanted thymus and host lymph nodes” value with transgenic CD4^+ T cells [2] (donor neonates injected (2 μg) 24 hours before transplantation) is listed as “found only in mice grafted with thymi from neonates injected with the selecting peptide; also recorded: repopulate peripheral lymph nodes”. For the same sequence, in the experiment on transgenic CD4^+ T cells [2] (recipients injected two days after surgery, analysed after 10 days), the “presence of transgenic CD4^+ T cells in transplanted thymus and lymph nodes” value is “found only in thymus-grafted mice, injected with the selecting peptide”. Further, the “cellularity of the thymus and number of apoptotic cells (TUNNEL assay and annexin V staining)” value in experiment [3] (20 μg, compared with controls) is recorded as “the same”. Moreover, the “expression of TCR, CD69, bcl-2 on thymocytes” value in experiment [3] (after injection of selecting peptide (20 μg, 48 hours)) was “became bcl-2+; also recorded: upregulated CD69 and bcl-2 expression; also recorded: upregulated TCR and CD69 expression; also recorded: Bcl-2 was upregulated”. In addition, the “positive selection of transgenic thymocytes” value in experiment [3] (i.p., non-deleting dose (20 μg)) was “restored selection of CD4^+ single positive thymocytes”. For the same sequence, in experiment [3] (mouse, in vivo), the “CD25 phenotype of newly selected CD4^+ thymocytes” value is “CD25^−”. Also, the “differentiation of thymocytes into single positive CD4^+ cells” value in experiment [3] (setting [4]) is “differentiate into single positive CD4^+ cells”. The “total number of thymocytes” value in experiment [3] (setting [4]) was 161.5×10^6±54.4; in experiment [3] (one i.p. injection of 50 μg, 48 hours), 142.5×10^6±44.9. Moreover, the “duration of positive selection of CD4^+ thymocytes after a single injection” value in experiment [3] (single injection) is given as 14 days. The “tumor mass / size relative to mice without selecting peptide” value with B16 melanoma cells (20 μg i.p.) is 4-6 times smaller. Further, in the experiment on B16 melanoma cells (more then ¾ YFP^+ in mice not treated), the “expression of A^bPCC50V54A-YFP on remaining tumor cells” value is reported as “do not express A^bPCC50V54A-YFP”.

These data come from US20030021796A1, “Method of enhancing T cell immunity by selection of antigen specific T cells” (priority 2001, published 2003).
